# Values quoted from earlier work, collected in patent US12484617B2, “Oral pouch product” (Altria Client Services LLC, priority 2022, dated 2025).
# Conditions: free base (non-protonated)
smiles,measurement,value
"CN1CCCC1c1cccnc1 (stereo not shown) [Free-base nicotine, 3-(1-methyl-2-pyrrolidinyl)pyridine]",pKa value,about 8
